Laboratory results as given in patent US12528814B2, “Bifunctional degraders of interleukin-1 receptor-associated kinases and therapeutic use thereof” (NURIX THERAPEUTICS, INC., priority 2020, dated 2026).
Entries after “also recorded” stand apart in the source; their conditions may differ. Read-outs that look alike come from different tables or passages of the source.

Columns and labels:
[1] = biological target: T1, IRAK4 (Homo sapiens (Human), UniProt Q9NWZ3); test: IRAK4 Degradation HTRF Assay; format: cell-based; conditions: wild-type Jurkat cells, 4 hrs
Procedure: DMSO was stamped into wells A12-H12 at 400 nL/well (NC, Negative Control, maximum signal). […] Following incubation, plates were centrifuged for 5 min at 1600 rpm. […] Cells were incubated 30 min at room temperature with gentle shaking. 16 μL each lysate was transferred to 96-well detection plate included in Cisbio Total IRAK4 HTRF Assay Kit (cat. no. 63ADK108PEG). To the lysates was added 2 μL each of Total-IRAK4 d2 antibody and Total-IRAK4 Cryptate antibody (Cisbio Total IRAK4 HTRF Assay Kit). Plates were incubated overnight at RT. Fluorescence emission at 665 nm and 620 nm was read using an EnVision plate reader. The HTRF Ratio was calculated per sample using the following equation: HTRF Ratio=(665 nm signal/620 nm signal)×10,000
Target sequence in this assay (Q9NWZ3 whole entry): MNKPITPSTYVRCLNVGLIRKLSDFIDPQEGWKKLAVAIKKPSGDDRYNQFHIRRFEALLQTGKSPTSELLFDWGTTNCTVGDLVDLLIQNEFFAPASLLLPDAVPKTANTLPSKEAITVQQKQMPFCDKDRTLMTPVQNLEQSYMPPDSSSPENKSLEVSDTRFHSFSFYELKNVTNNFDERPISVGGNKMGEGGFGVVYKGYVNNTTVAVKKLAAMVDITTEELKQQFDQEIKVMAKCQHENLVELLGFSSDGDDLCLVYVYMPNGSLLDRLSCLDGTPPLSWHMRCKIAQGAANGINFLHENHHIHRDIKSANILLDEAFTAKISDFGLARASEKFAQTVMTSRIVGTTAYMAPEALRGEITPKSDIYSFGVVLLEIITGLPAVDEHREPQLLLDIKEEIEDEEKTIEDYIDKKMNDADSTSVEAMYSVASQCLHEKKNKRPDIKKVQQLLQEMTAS

[2] = biological target: T1, IRAK4; test: IRAK4 Biochemical HTRF Kinase Assay
How it was run: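 IC50 values derive from non-linear regression of sixteen concentrations in duplicate. Kinase reaction ran 90 min at ambient temperature after adding 5 μM STK-S1 substrate, 10 mM ATP and 10 mM MgCl2 (reaction-solution levels, pre-dilution to 10 μl); phospho-peptide detected by HTRF after 60 min.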
Target sequence in this assay (Q9NWZ3 whole entry, species assumed): as the sequence (Q9NWZ3 whole entry) above

[3] = biological target: T1, IRAK4; test: Western Assay for IRAK4 Degradation; format: cell-based; conditions: wild-type Jurkat cells, 4 hrs; approximate
Procedure: DMSO was stamped into wells A12-H12 at 500 nL/well (NC, Negative Control, maximum signal). […] Following incubation, plates were centrifuged for 5 min at 1600 rpm. […] Cells were lysed overnight at −20° C. Plates were centrifuged for 5 min at 1600 rpm and lysate supernatants were transferred to storage plates. […] Samples were separated by running gels at constant 200 V in NuPAGE MES SDS Running Buffer. Following electrophoresis, proteins were transferred to nitrocellulose membranes using an iBlot Gel Transfer Device and iBlot Gel Transfer Stacks (Thermo cat. no. IB21001 and IB301001) and transfer method PO (20V 1 min, 23V 4 min, 25V 2 min). Membranes were blocked for 1 hr in 5% milk solution (TBS (0.2% Tween-20)).
Following blocking, membranes were incubated with primary antibody overnight at 4° C. with gentle shaking. […] Blots were washed 3× in TBS (0.2% Tween-20), 5-10 min per wash. Following washes, blots were incubated in secondary HRP-conjugated antibody (Promega anti-Rabbit IgG (H+L) HRP, cat. no. W4011), 1:5000 in 5% milk solution (TBS (0.2% Tween-20)), for 1 hr at room temperature with gentle shaking. Blots were washed 3× in TBS (0.2% Tween-20), 5-10 min per wash. Blots were incubated with 1:1 mix of ECL reagents 1 & 2 (Amersham ECL Western Blotting Detection Reagent, cat. no. RPN2106) for 2-3 min at room temperature. Bands were visualized using a Protein Simple imager. […] The data was analyzed using Alpha View software. The densitometric reading for each sample band was normalized to that of the corresponding actin band per lane.
Target sequence in this assay (Q9NWZ3 whole entry): as above

[4] = biological target: Aiolos (Homo sapiens (Human), UniProt Q96SW2+Q9UKT9); test: Flow Cytometry-Based Assay for Aiolos Degradation; format: cell-based; conditions: 24 hours; for DC50: Jurkat cells (Clone E6-1); for Aiolos (CRBN neosubstrate) degradation, in words: Jurkat cells
Chain of Aiolos (Q9UKT9 whole entry): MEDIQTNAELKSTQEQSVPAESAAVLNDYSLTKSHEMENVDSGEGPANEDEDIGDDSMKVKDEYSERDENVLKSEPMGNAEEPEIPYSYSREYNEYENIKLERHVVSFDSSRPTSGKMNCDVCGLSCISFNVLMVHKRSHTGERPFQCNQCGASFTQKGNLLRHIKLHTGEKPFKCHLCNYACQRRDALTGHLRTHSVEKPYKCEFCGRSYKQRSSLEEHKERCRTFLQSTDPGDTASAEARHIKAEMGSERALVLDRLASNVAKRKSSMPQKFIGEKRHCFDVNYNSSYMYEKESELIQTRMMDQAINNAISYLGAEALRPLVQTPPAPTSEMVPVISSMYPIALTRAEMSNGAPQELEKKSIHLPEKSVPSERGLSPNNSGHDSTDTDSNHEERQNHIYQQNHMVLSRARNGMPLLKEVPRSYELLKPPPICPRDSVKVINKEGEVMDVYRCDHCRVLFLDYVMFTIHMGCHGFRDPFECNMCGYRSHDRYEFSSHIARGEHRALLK
Chain of Aiolos (Q96SW2 whole entry): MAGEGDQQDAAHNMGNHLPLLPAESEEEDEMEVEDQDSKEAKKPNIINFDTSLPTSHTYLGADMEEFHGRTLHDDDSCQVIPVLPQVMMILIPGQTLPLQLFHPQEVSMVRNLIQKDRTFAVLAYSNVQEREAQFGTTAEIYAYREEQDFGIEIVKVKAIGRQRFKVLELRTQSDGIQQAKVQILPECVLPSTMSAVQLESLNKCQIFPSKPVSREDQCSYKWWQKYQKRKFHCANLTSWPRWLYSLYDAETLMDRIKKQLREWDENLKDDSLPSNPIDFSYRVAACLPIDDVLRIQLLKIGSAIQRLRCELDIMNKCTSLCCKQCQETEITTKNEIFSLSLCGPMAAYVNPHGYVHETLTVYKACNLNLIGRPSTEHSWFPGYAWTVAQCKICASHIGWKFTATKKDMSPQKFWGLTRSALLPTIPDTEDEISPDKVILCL
Chain of Aiolos (Q16531 whole entry partner): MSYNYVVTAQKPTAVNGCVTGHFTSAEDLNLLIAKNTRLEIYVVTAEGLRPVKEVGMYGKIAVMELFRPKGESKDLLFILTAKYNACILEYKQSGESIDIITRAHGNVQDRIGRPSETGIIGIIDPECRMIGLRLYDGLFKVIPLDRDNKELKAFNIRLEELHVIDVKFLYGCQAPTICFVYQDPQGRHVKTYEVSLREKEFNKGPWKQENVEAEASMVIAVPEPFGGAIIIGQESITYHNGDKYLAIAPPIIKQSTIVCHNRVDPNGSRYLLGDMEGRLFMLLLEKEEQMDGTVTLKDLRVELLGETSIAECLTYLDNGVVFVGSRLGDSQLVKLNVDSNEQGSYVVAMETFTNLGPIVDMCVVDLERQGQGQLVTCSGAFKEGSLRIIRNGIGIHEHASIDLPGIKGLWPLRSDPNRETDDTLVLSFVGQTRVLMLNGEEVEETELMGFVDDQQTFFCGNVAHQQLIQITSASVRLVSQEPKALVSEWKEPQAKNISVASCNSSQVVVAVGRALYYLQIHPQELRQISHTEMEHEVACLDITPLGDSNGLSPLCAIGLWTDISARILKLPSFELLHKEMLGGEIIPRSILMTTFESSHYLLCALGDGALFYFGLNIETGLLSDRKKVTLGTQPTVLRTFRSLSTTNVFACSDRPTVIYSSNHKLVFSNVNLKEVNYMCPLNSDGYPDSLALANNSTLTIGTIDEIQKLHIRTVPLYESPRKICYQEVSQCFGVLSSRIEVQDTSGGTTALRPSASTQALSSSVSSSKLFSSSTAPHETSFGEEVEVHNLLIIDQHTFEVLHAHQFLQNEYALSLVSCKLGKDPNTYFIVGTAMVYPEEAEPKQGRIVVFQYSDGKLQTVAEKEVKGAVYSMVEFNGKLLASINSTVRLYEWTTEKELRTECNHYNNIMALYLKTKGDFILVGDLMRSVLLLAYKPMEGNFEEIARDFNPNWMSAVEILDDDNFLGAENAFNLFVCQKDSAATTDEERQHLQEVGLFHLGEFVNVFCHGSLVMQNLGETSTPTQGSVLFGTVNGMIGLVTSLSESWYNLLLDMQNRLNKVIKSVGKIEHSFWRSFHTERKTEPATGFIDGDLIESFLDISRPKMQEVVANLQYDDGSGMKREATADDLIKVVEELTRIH
Procedure: Flow Cytometry-Based Assay for Aiolos and Ikaros Degradation
Jurkat cells (Clone E6-1) were treated with DMSO or compound for 24 hours and then fixed and permeabilized using a Foxp3/Transcription Factor Fixation/Permeabilization Kit (eBioscience, cat. no. 00-5523). Cells were stained with fluorophore-conjugated antibodies against Ikaros (Biolegend 368414) and Aiolos (Biolegend, cat. no. 371106). An additional set of DMSO-treated cells was stained with fluorophore-conjugated isotype control antibodies (Biolegend, cat. no. 400254 and 400136). Stained cells were run on an Attune N×T Acoustic Focusing Flow Cytometer (Thermo-Fisher, cat. no. A29004), and data was analyzed using FlowJo (v10.5.3) and GraphPad Prism (v7.00) software. Single cells were gated, and the geometric mean fluorescence intensities (MFIs) of Ikaros and Aiolos were calculated. The MFI of the isotype control was calculated for each analyte and used to quantify background staining. Percent Ikaros or Aiolos degradation was calculated for each compound-treated sample using the following equation: % Degradation=[…]

[5] = biological target: T1, IRAK4; test: IRAK4 Degradation Competition/Rescue Assay; format: cell-based; conditions: degrader 1 μM; 1 hr pre-treatment with Nedd8i (5 μM) or MG-132 (20 or 50 μM); HiBiT Jurkat clone 8D5
From the text: IRAK4 Degradation Competition/Rescue Assay
Target sequence in this assay (Q9NWZ3 whole entry): as the sequence (Q9NWZ3 whole entry) above

[6] = Table 2, CRBN-targeting compounds, read-out: IRAK4 biochemical IC50
[7] = Table 3, VHL-targeting compounds, read-out: IRAK4 biochemical IC50
[8] = Table 4, read-out: IRAK4 HTRF biochemical: IC50
[9] = Table 5, multiple runs, read-out: IRAK4 HTRF biochemical: IC50

| SMILES | DC50 [1] | Dmax [1] | IC50 [2, 6] | DC50 [3] | Dmax [3] | DC50 [4] | Aiolos (CRBN neosubstrate) degradation, in words [4] | Rescue by proteasome or Nedd8 inhibition [5] | IC50 [2, 7] | IC50 [2, 8] | IC50 [2, 9] | IRAK4 degradation by HTRF, in words [1] |
| --- | --- | --- | --- | --- | --- | --- | --- | --- | --- | --- | --- | --- |
| NC(=O)c1nn(-c2ccc(C(=O)NCCOCCOCCNc3cccc4c3C(=O)N(C3CCC(=O)NC3=O)C4=O)cc2)cc1NC(=O)c1coc(-c2ccnc(NCC(F)(F)F)c2)n1 (centres unmarked) [Comparative Compound a2, reference compound] | 60 nM | 100% | 1.2 nM | 1 nM | 54% | 20 nM | induced neosubstrate degradation; also recorded: degraded both Ikaros and Aiolos | YES |  |  |  |  |
| CC[C@@H]1[C@H](F)C(=O)N[C@@H]1COc1ncc(C#CCN2CCC3(CC2)CCN(c2ncc(C(=O)N[C@H](C(=O)N4C[C@H](O)C[C@H]4C(=O)NCc4ccc(-c5scnc5C)cc4)C(C)(C)C)cn2)CC3)c2cc(C(N)=O)c(OC)cc12 [Comparative b1, reference compound] | 80 nM | 100% |  | 70 nM | 86% | > 5000 nM |  | YES | 2.3 nM |  |  |  |
| CC(C)Nc1cc(-c2ccc3cc(C#N)cnn23)ncc1-c1nnc(N2CCN(C(=O)C3CCN(Cc4ccc5c(c4)C(=O)N(C4CCC(=O)NC4=O)C5=O)CC3)CC2)s1 (centres unmarked) [Example 13, 7-(5-(5-(4-(1-((2-(2,6-dioxopiperidin-3-yl)-1,3-dioxoisoindolin-5-yl)methyl)piperidine-4-carbonyl)piperazin-1-yl)-1,3,4-thiadiazol-2-yl)-4-(isopropylamino)pyridin-2-yl)pyrrolo[1,2-b]pyridazine-3-carbonitrile] | 50 nM | > 100% | 0.5 nM | 14 nM | 87% | > 5000 nM | none of Compounds 13, 24, 47, and 35 displayed neosubstrate degradation | YES |  | 0.5 nM | 0.8 nM |  |
| CC(C)Nc1cc(-c2ccc3cc(C#N)cnn23)ncc1-c1nnc(N2CCN(C(=O)C3CCN(CC4CCN(c5ccc(-c6nn(C7CCC(=O)NC7=O)c(=O)n6C)cc5)CC4)CC3)CC2)s1 (centres unmarked) [Example 24, 7-(5-(5-(4-(1-((1-(4-(1-(2,6-dioxopiperidin-3-yl)-4-methyl-5-oxo-4,5-dihydro-1H-1,2,4-triazol-3-yl)phenyl)piperidin-4-yl)methyl)piperidine-4-carbonyl)piperazin-1-yl)-1,3,4-thiadiazol-2-yl)-4-(isopropylamino)pyridin-2-yl)pyrrolo[1,2-b]pyridazine-3-carbonitrile] | 420 nM | > 100% | 0.6 nM | 200 nM | 90% | > 5000 nM | none of Compounds 13, 24, 47, and 35 displayed neosubstrate degradation | YES |  | 0.6 nM | 0.6 nM |  |
| Cc1ncsc1-c1ccc(CNC(=O)[C@@H]2C[C@@H](O)CN2C(=O)[C@@H](NC(=O)CCCC(=O)N2CCN(c3nnc(-c4cnc(-c5ccc6cc(C#N)cnn56)cc4NC(C)C)s3)CC2)C(C)(C)C)cc1 [Example 35, (2S,4R)-1-((S)-2-(5-(4-(5-(6-(3-cyanopyrrolo[1,2-b]pyridazin-7-yl)-4-(isopropylamino)pyridin-3-yl)-1,3,4-thiadiazol-2-yl)piperazin-1-yl)-5-oxopentanamido)-3,3-dimethylbutanoyl)-4-hydroxy-N-(4-(4-methylthiazol-5-yl)benzyl)pyrrolidine-2-carboxamide] | 400 nM | 100% |  | 200 nM | 86% | > 5000 nM | none of Compounds 13, 24, 47, and 35 displayed neosubstrate degradation | YES | 5.2 nM | 5.2 nM | 5.2 nM |  |
| Cc1ncsc1-c1ccc(CNC(=O)[C@@H]2C[C@@H](O)CN2C(=O)[C@@H](NC(=O)C2(F)CC2)C(C)(C)C)c(OCCOCCC(=O)N2CCN(c3nnc(-c4cnc(-c5ccc6cc(C#N)cnn56)cc4NC(C)C)s3)CC2)c1 [Example 47, (2S,4R)—N-(2-(2-(3-(4-(5-(6-(3-cyanopyrrolo[1,2-b]pyridazin-7-yl)-4-(isopropylamino)pyridin-3-yl)-1,3,4-thiadiazol-2-yl)piperazin-1-yl)-3-oxopropoxy)ethoxy)-4-(4-methylthiazol-5-yl)benzyl)-1-((S)-2-(1-fluorocyclopropane-1-carboxamido)-3,3-dimethylbutanoyl)-4-hydroxypyrrolidine-2-carboxamide] | 140 nM | > 100% |  | 89 nM | 99% | > 5000 nM | none of Compounds 13, 24, 47, and 35 displayed neosubstrate degradation | YES | 7.3 nM | 7.3 nM | 5.8 nM | maximum IRAK4 degradation among the tested compounds |
